ChEMBL document CHEMBL1156858, “Comparative analysis of DNA alkylation by conjugates between pyrrole-imidazole hairpin polyamides and chlorambucil or seco-CBI” (2010)
Active and inactive are the calls of the source. The rule behind the calls is not given here.

How the values were obtained:
[1] = system: Nucleic Acid; assay: Induction of DNA alkylation at 3'-side adenines in 5'-AGCAGTCAAAAA-3' site of 5'-Texas Red-modified 209bp DNA fragment at 10 nm to 1 uM after 18 hrs at 23 degC by high-resolution denaturing PAGE; assay type: nucleic-acid assay
[2] = system: Nucleic Acid; assay: Induction of DNA alkylation at 5'-AAAAAAGACTGCT-3' site of 5'-Texas Red-modified 209bp DNA fragment at 10 nm to 1 uM after 18 hrs at 23 degC by high-resolution denaturing PAGE; assay type: nucleic-acid assay
[3] = system: Nucleic Acid; assay: Induction of DNA alkylation at 5'-TCTTTTTAA-3' site of 5'-Texas Red-modified 209bp DNA fragment at 10 nm to 1 uM after 18 hrs at 23 degC by high-resolution denaturing PAGE; assay type: nucleic-acid assay
[4] = system: K562; assay: Growth inhibition of human K562 cells after 48 hrs by WST8 dye reduction assay; assay type: functional; conditions: K562, 48 h
[5] = system: Nucleic Acid; assay: Induction of DNA alkylation at 5' side in 5'-AGCAGTC-3' site of 5'-Texas Red-modified 209bp DNA fragment at 10 nm to 1 uM after 18 hrs at 23 degC by high-resolution denaturing PAGE; assay type: nucleic-acid assay

Row | SMILES | Activity [1] | Activity [2] | Activity [3] | GI50 [4] [µM] | Activity [5]
1 | CN(C)CCCNC(=O)c1cc(NC(=O)c2cc(NC(=O)c3nc(NC(=O)CCNC(=O)c4cc(NC(=O)c5ncc(NC(=O)CCCNC(=O)c6cc(NC(=O)c7nc(NC(=O)CCNC(=O)c8cc(NC(=O)c9cc(NC(=O)c%10nc(NC(=O)CCCc%11ccc(N(CCCl)CCCl)cc%11)cn%10C)cn9C)cn8C)cn7C)cn6C)n5C)cn4C)cn3C)cn2C)cn1C | Active | inactive | Active | > 2.5 | 
2 | CN(C)CCCNC(=O)c1cc(NC(=O)c2cc(NC(=O)c3nc(NC(=O)CCNC(=O)c4cc(NC(=O)c5ncc(NC(=O)CCCNC(=O)c6cc(NC(=O)c7nc(NC(=O)CCNC(=O)c8cc(NC(=O)c9cc(NC(=O)c%10nc(NC(=O)CCNC(=O)CCCc%11ccc(N(CCCl)CCCl)cc%11)cn%10C)cn9C)cn8C)cn7C)cn6C)n5C)cn4C)cn3C)cn2C)cn1C | Active | inactive |  | 8 | 
3 | CC(=O)Nc1cn(C)c(C(=O)Nc2cc(C(=O)Nc3cc(C(=O)NCCC(=O)Nc4cn(C)c(C(=O)Nc5cc(C(=O)NCCCC(=O)Nc6cnc(C(=O)Nc7cc(C(=O)NCCC(=O)Nc8cn(C)c(C(=O)Nc9cc(C(=O)Nc%10cc(C(=O)NCCCN(C)CCCNC(=O)CCCc%11ccc(N(CCCl)CCCl)cc%11)n(C)c%10)n(C)c9)n8)n(C)c7)n6C)n(C)c5)n4)n(C)c3)n(C)c2)n1 | Active | Active |  | > 2.5 | 
4 | CC(=O)Nc1cn(C)c(C(=O)Nc2cc(C(=O)Nc3cc(C(=O)NCCC(=O)Nc4cn(C)c(C(=O)Nc5cc(C(=O)NCCCC(=O)Nc6cn(C)c(C(=O)Nc7cc(C(=O)NCCC(=O)Nc8cn(C)c(C(=O)Nc9ccc%10[nH]c(C(=O)N%11CC(CCl)c%12c%11cc(O)c%11ccccc%12%11)cc%10c9)n8)n(C)c7)n6)n(C)c5)n4)n(C)c3)n(C)c2)n1 (configuration not stated) | Active |  | Active | 0.06 | 
5 | CC(=O)Nc1cn(C)c(C(=O)Nc2cc(C(=O)Nc3cc(C(=O)NCCC(=O)Nc4cn(C)c(C(=O)Nc5cc(C(=O)N[C@H](CCNC(=O)CCCc6ccc(N(CCCl)CCCl)cc6)C(=O)Nc6cnc(C(=O)Nc7cc(C(=O)NCCC(=O)Nc8cn(C)c(C(=O)Nc9cc(C(=O)Nc%10cc(C(=O)NCCCN(C)C)n(C)c%10)n(C)c9)n8)n(C)c7)n6C)n(C)c5)n4)n(C)c3)n(C)c2)n1 | Active | inactive |  | > 10 | Active
